Measured values published in ChEMBL document CHEMBL4002623, “Synthesis and in vitro activity of dicationic indolyl diphenyl ethers as novel potent antibiotic agents against drug-resistant bacteria” (Bioorg Med Chem Lett, 2017).
Values after ≈ are worked out from the molar mass of the structure shown.

Tests used:
[1] = system: Staphylococcus epidermidis; assay: Antibacterial activity against methicillin-resistant Staphylococcus epidermidis 09-3 by agar dilution method; type: functional
Pseudomonas aeruginosa [2] = assay: Antibacterial activity against Pseudomonas aeruginosa PAO1 by agar dilution method; type: functional
[3] = system: Acinetobacter calcoaceticus; assay: Antibacterial activity against Acinetobacter calcoaceticus ATCC 19606 by agar dilution method; type: functional
Klebsiella pneumoniae [4] = assay: Antibacterial activity against extended-spectrum beta-lactamase-negative Klebsiella pneumoniae 7 by agar dilution method; type: functional
Staphylococcus aureus [5] = assay: Antibacterial activity against methicillin-sensitive Staphylococcus aureus ATCC 29213 by agar dilution method; type: functional
Enterococcus faecalis [6] = assay: Antibacterial activity against vancomycin-sensitive Enterococcus faecalis 09-8 by agar dilution method; type: functional
Klebsiella pneumoniae [7] = assay: Antibacterial activity against extended-spectrum beta-lactamase-negative Klebsiella pneumoniae 09-8 by agar dilution method; type: functional
Citrobacter freundii = assay: Antibacterial activity against Citrobacter freundii ATCC 43864 by agar dilution method; type: functional
Enterococcus faecalis [8] = assay: Antibacterial activity against vancomycin-resistant Enterococcus faecalis ATCC 51299 by agar dilution method; type: functional
Enterococcus faecium [9] = assay: Antibacterial activity against vancomycin-resistant Enterococcus faecium 05-8 by agar dilution method; type: functional
[10] = system: Staphylococcus epidermidis; assay: Antibacterial activity against methicillin-sensitive Staphylococcus epidermidis ATCC 12228 by agar dilution method; type: functional
Providencia rettgeri = assay: Antibacterial activity against Providencia rettgeri ATCC 31052 by agar dilution method; type: functional
Staphylococcus aureus [11] = assay: Antibacterial activity against methicillin-resistant Staphylococcus aureus 09-13 by agar dilution method; type: functional
Klebsiella pneumoniae [12] = assay: Antibacterial activity against extended-spectrum beta-lactamase-positive Klebsiella pneumoniae 09-25 by agar dilution method; type: functional
[13] = Cytotoxicity against HEK293T cells after 48 hrs by MTS assay; type: cell-based, HEK-293T; details: human
Staphylococcus aureus [14] = assay: Antibacterial activity against methicillin-resistant Staphylococcus aureus ATCC 33591 by agar dilution method; type: functional
Enterobacter cloacae = assay: Antibacterial activity against Enterobacter cloacae 45301 by agar dilution method; type: functional
Escherichia coli [15] = assay: Antibacterial activity against extended-spectrum beta-lactamase-negative Escherichia coli 09-20 by agar dilution method; type: functional
Serratia marcescens = assay: Antibacterial activity against Serratia marcescens 41002 by agar dilution method; type: functional
Proteus vulgaris = assay: Antibacterial activity against Proteus vulgaris ATCC 29905 by agar dilution method; type: functional
Salmonella typhi = assay: Antibacterial activity against Salmonella typhi H901 by agar dilution method; type: functional, Salmonella enterica subsp. enterica serovar Typhi; details: Salmonella enterica
Staphylococcus aureus [16] = assay: Antibacterial activity against methicillin-sensitive Staphylococcus aureus 15 by agar dilution method; type: functional
Enterococcus faecium [17] = assay: Antibacterial activity against vancomycin-sensitive Enterococcus faecium 09-10 by agar dilution method; type: functional
Staphylococcus aureus [18] = assay: Antibacterial activity against methicillin-sensitive Staphylococcus aureus 09-6 by agar dilution method; type: functional
Proteus mirabilis = assay: Antibacterial activity against Proteus mirabilis 09-1 by agar dilution method; type: functional
Escherichia coli [19] = assay: Antibacterial activity against extended-spectrum beta-lactamase-positive Escherichia coli 09-1 by agar dilution method; type: functional
Escherichia coli [20] = assay: Antibacterial activity against extended-spectrum beta-lactamase-negative Escherichia coli 1515 by agar dilution method; type: functional
[21] = system: Staphylococcus epidermidis; assay: Antibacterial activity against methicillin-sensitive Staphylococcus epidermidis 09-9 by agar dilution method; type: functional
Pseudomonas aeruginosa [22] = assay: Antibacterial activity against Pseudomonas aeruginosa ATCC 27853 by agar dilution method; type: functional
Pseudomonas aeruginosa [23] = assay: Antibacterial activity against Pseudomonas aeruginosa 09-14 by agar dilution method; type: functional
Morganella morganii = assay: Antibacterial activity against Morganella morganii ATCC 25830 by agar dilution method; type: functional
Klebsiella pneumoniae [24] = assay: Antibacterial activity against Klebsiella pneumoniae ATCC BAA-2146 expressing NDM-1 by agar dilution method; type: functional
Escherichia coli [25] = assay: Antibacterial activity against extended-spectrum beta-lactamase-negative Escherichia coli ATCC 25922 by agar dilution method; type: functional
Enterococcus faecalis [26] = assay: Antibacterial activity against vancomycin-resistant Enterococcus faecalis 09-9 by agar dilution method; type: functional
Klebsiella aerogenes = assay: Antibacterial activity against Enterobacter aerogenes 45102 by agar dilution method; type: functional
Enterococcus faecalis [27] = assay: Antibacterial activity against vancomycin-sensitive Enterococcus faecalis ATCC 29212 by agar dilution method; type: functional
Enterococcus faecium [28] = assay: Antibacterial activity against vancomycin-resistant Enterococcus faecium ATCC 700221 by agar dilution method; type: functional
Klebsiella pneumoniae [29] = assay: Antibacterial activity against extended-spectrum beta-lactamase-positive Klebsiella pneumoniae ATCC 700603 by agar dilution method; type: functional

Row | SMILES | MIC [1] [µg/mL] | MIC (Pseudomonas aeruginosa [2]) [µg/mL] | MIC [3] [µg/mL] | MIC (Klebsiella pneumoniae [4]) [µg/mL] | MIC (Staphylococcus aureus [5]) [µg/mL] | MIC (Enterococcus faecalis [6]) [µg/mL] | MIC (Klebsiella pneumoniae [7]) [µg/mL] | MIC (Citrobacter freundii) [µg/mL] | MIC (Enterococcus faecalis [8]) [µg/mL] | MIC (Enterococcus faecium [9]) [µg/mL] | MIC [10] [µg/mL] | MIC (Providencia rettgeri) [µg/mL] | MIC (Staphylococcus aureus [11]) [µg/mL] | MIC (Klebsiella pneumoniae [12]) [µg/mL] | CC50 at 48 h [13] [µg/mL] | MIC (Staphylococcus aureus [14]) [µg/mL] | MIC (Enterobacter cloacae) [µg/mL] | MIC (Escherichia coli [15]) [µg/mL] | MIC (Serratia marcescens) [µg/mL] | MIC (Proteus vulgaris) [µg/mL] | further results
1 | CC(C)NC(=N)c1ccc2cc(-c3ccc(Oc4ccc(-c5cc6ccc(C(=N)NC(C)C)cc6[nH]5)cc4)cc3)[nH]c2c1 | 1 (≈ 1.76 µM) | > 128 | 128 (≈ 225 µM) | 64 (≈ 113 µM) | 1 (≈ 1.76 µM) | 1 (≈ 1.76 µM) | 64 (≈ 113 µM) | 64 (≈ 113 µM) | 2 (≈ 3.52 µM) | 1 (≈ 1.76 µM) | 1 (≈ 1.76 µM) | 64 (≈ 113 µM) | 1 (≈ 1.76 µM) | 64 (≈ 113 µM) | 7.3 (≈ 12.8 µM) | 1 (≈ 1.76 µM) | 64 (≈ 113 µM) | 32 (≈ 56.3 µM) | 64 (≈ 113 µM) | 64 (≈ 113 µM) | MIC (Salmonella typhi): 32 µg/mL (≈ 56.3 µM); MIC (Staphylococcus aureus [16]): 1 µg/mL (≈ 1.76 µM); MIC (Enterococcus faecium [17]): 2 µg/mL (≈ 3.52 µM); MIC (Staphylococcus aureus [18]): 1 µg/mL (≈ 1.76 µM); MIC (Proteus mirabilis): 64 µg/mL (≈ 113 µM); MIC (Escherichia coli [19]): 32 µg/mL (≈ 56.3 µM); MIC (Escherichia coli [20]): 32 µg/mL (≈ 56.3 µM); MIC [21]: 1 µg/mL (≈ 1.76 µM); MIC (Pseudomonas aeruginosa [22]): 64 µg/mL (≈ 113 µM); MIC (Pseudomonas aeruginosa [23]): 64 µg/mL (≈ 113 µM); MIC (Morganella morganii): 16 µg/mL (≈ 28.1 µM); MIC (Klebsiella pneumoniae [24]): 64 µg/mL (≈ 113 µM); MIC (Escherichia coli [25]): 16 µg/mL (≈ 28.1 µM); MIC (Enterococcus faecalis [26]): 2 µg/mL (≈ 3.52 µM); MIC (Klebsiella aerogenes): 64 µg/mL (≈ 113 µM); MIC (Enterococcus faecalis [27]): 1 µg/mL (≈ 1.76 µM); MIC (Enterococcus faecium [28]): 1 µg/mL (≈ 1.76 µM); MIC (Klebsiella pneumoniae [29]): 64 µg/mL (≈ 113 µM)
2 | CC1CCN(C(=N)c2ccc3cc(-c4ccc(Oc5ccc(-c6cc7ccc(C(=N)N8CCC(C)CC8)cc7[nH]6)cc5)cc4)[nH]c3c2)CC1 | 8 (≈ 12.3 µM) | > 128 | > 128 | > 128 | 16 (≈ 24.7 µM) | 128 (≈ 197 µM) | > 128 | > 128 | 128 (≈ 197 µM) | 128 (≈ 197 µM) | 4 (≈ 6.16 µM) | > 128 | 16 (≈ 24.7 µM) | > 128 | 3.2 (≈ 4.93 µM) | 16 (≈ 24.7 µM) | > 128 | > 128 | > 128 | > 128 | MIC (Salmonella typhi): > 128 µg/mL; MIC (Staphylococcus aureus [16]): 16 µg/mL (≈ 24.7 µM); MIC (Enterococcus faecium [17]): 128 µg/mL (≈ 197 µM); MIC (Staphylococcus aureus [18]): 16 µg/mL (≈ 24.7 µM); MIC (Proteus mirabilis): > 128 µg/mL; MIC (Escherichia coli [19]): > 128 µg/mL; MIC (Escherichia coli [20]): > 128 µg/mL; MIC [21]: 8 µg/mL (≈ 12.3 µM); MIC (Pseudomonas aeruginosa [22]): > 128 µg/mL; MIC (Pseudomonas aeruginosa [23]): > 128 µg/mL; MIC (Morganella morganii): > 128 µg/mL; MIC (Klebsiella pneumoniae [24]): > 128 µg/mL; MIC (Escherichia coli [25]): > 128 µg/mL; MIC (Enterococcus faecalis [26]): 128 µg/mL (≈ 197 µM); MIC (Klebsiella aerogenes): > 128 µg/mL; MIC (Enterococcus faecalis [27]): 64 µg/mL (≈ 98.6 µM); MIC (Enterococcus faecium [28]): 16 µg/mL (≈ 24.7 µM); MIC (Klebsiella pneumoniae [29]): > 128 µg/mL
3 | CCNC(=N)c1ccc2cc(-c3ccc(Oc4ccc(-c5cc6ccc(C(=N)NCC)cc6[nH]5)cc4)cc3)[nH]c2c1 | 1 (≈ 1.85 µM) | > 128 | > 128 | 128 (≈ 237 µM) | 2 (≈ 3.7 µM) | 2 (≈ 3.7 µM) | 64 (≈ 118 µM) | 128 (≈ 237 µM) | 2 (≈ 3.7 µM) | 4 (≈ 7.4 µM) | 1 (≈ 1.85 µM) | 128 (≈ 237 µM) | 1 (≈ 1.85 µM) | 64 (≈ 118 µM) | 36.3 (≈ 67.1 µM) | 1 (≈ 1.85 µM) | 64 (≈ 118 µM) | 64 (≈ 118 µM) | 128 (≈ 237 µM) | 128 (≈ 237 µM) | MIC (Salmonella typhi): 64 µg/mL (≈ 118 µM); MIC (Staphylococcus aureus [16]): 1 µg/mL (≈ 1.85 µM); MIC (Enterococcus faecium [17]): 16 µg/mL (≈ 29.6 µM); MIC (Staphylococcus aureus [18]): 2 µg/mL (≈ 3.7 µM); MIC (Proteus mirabilis): 128 µg/mL (≈ 237 µM); MIC (Escherichia coli [19]): 64 µg/mL (≈ 118 µM); MIC (Escherichia coli [20]): 64 µg/mL (≈ 118 µM); MIC [21]: 1 µg/mL (≈ 1.85 µM); MIC (Pseudomonas aeruginosa [22]): 128 µg/mL (≈ 237 µM); MIC (Pseudomonas aeruginosa [23]): 128 µg/mL (≈ 237 µM); MIC (Morganella morganii): 128 µg/mL (≈ 237 µM); MIC (Klebsiella pneumoniae [24]): 128 µg/mL (≈ 237 µM); MIC (Escherichia coli [25]): 64 µg/mL (≈ 118 µM); MIC (Enterococcus faecalis [26]): 1 to 8 µg/mL (≈ 1.85 to 14.8 µM); MIC (Klebsiella aerogenes): 64 µg/mL (≈ 118 µM); MIC (Enterococcus faecalis [27]): 2 µg/mL (≈ 3.7 µM); MIC (Enterococcus faecium [28]): 2 µg/mL (≈ 3.7 µM); MIC (Klebsiella pneumoniae [29]): 64 µg/mL (≈ 118 µM)
4 | N=C(NC1CC1)c1ccc2cc(-c3ccc(Oc4ccc(-c5cc6ccc(C(=N)NC7CC7)cc6[nH]5)cc4)cc3)[nH]c2c1 | 2 (≈ 3.54 µM) | > 128 | > 128 | > 128 | 4 (≈ 7.08 µM) | 4 (≈ 7.08 µM) | > 128 | > 128 | 4 (≈ 7.08 µM) | 4 (≈ 7.08 µM) | 1 (≈ 1.77 µM) | > 128 | 4 (≈ 7.08 µM) | > 128 | 36.9 (≈ 65.3 µM) | 4 (≈ 7.08 µM) | > 128 | 128 (≈ 227 µM) | > 128 | > 128 | MIC (Salmonella typhi): > 128 µg/mL; MIC (Staphylococcus aureus [16]): 4 µg/mL (≈ 7.08 µM); MIC (Enterococcus faecium [17]): 8 µg/mL (≈ 14.2 µM); MIC (Staphylococcus aureus [18]): 4 µg/mL (≈ 7.08 µM); MIC (Proteus mirabilis): > 128 µg/mL; MIC (Escherichia coli [19]): 128 µg/mL (≈ 227 µM); MIC (Escherichia coli [20]): 128 µg/mL (≈ 227 µM); MIC [21]: 4 µg/mL (≈ 7.08 µM); MIC (Pseudomonas aeruginosa [22]): > 128 µg/mL; MIC (Pseudomonas aeruginosa [23]): > 128 µg/mL; MIC (Morganella morganii): 128 µg/mL (≈ 227 µM); MIC (Klebsiella pneumoniae [24]): > 128 µg/mL; MIC (Escherichia coli [25]): 128 µg/mL (≈ 227 µM); MIC (Enterococcus faecalis [26]): 8 µg/mL (≈ 14.2 µM); MIC (Klebsiella aerogenes): 128 µg/mL (≈ 227 µM); MIC (Enterococcus faecalis [27]): 4 µg/mL (≈ 7.08 µM); MIC (Enterococcus faecium [28]): 4 µg/mL (≈ 7.08 µM); MIC (Klebsiella pneumoniae [29]): > 128 µg/mL
